Data from US20160349268A1, “STEPWISE ASSEMBLED CAPTURE COMPOUNDS COMPRISING A CLEAVABLE FUNCTION AND METHOD FOR ISOLATING AND/OR CHARACTERIZING BIOMOLECULES OR BIOMOLECULE FRAGMENTS, IN PARTICULAR PROTEINS OR PROTEIN FRAGMENTS, OF COMPLEX MIXTURES” (CAPROTEC BIOANALYTICS GMBH, priority 2014, published 2016).

Legend:
SAH binding protein = biological target: T1, SAH binding protein (Escherichia coli, UniProt P0AF12); experiment: Click-and-cleave with proteins/lysate, SDS-PAGE/silver stain; parameters: species or system E. coli K-12 strain; settings: cleavage conditions (10 mM 2-nitrobenzhydrazide and 10 mM HCl in 50% acetonitrile)
T1 construct: prepared from the DH5a derivative of the E. coli K-12 strain; endogenous in cells; host or cells: E. coli K-12 DH5a lysate
Experimental: Compound 11 (final concentration 2.5 μM) was incubated for 5 min at 4° C. with a lysate (final total protein concentration 5 mg/ml) prepared from the DH5a derivative of the E. coli K-12 strain in phosphate buffered saline (final volume 100 μl). In a so called competition control (designated “C” as opposed to “A” for CCMS assay without the competitor SAH) carried out side-by-side, S-adenosyl-L-homocysteine (SAH) (final concentration 250 μM) was added to the lysate before compound 11 to compete for the binding of the SAH selectivity function of 11 to SAH binding proteins such as S-adenosyl-L-methionine (SAM) dependent methyltransferases. […]
The samples “A” and “C” were incubated with 250 μg 13 (CPT601, CCB 4, trans-cyclooctene (TCO) modified controlled pore glass (CPG). CPG-TCO beads), respectively, over night at 4° C. with rotation to keep the CPG beads (13) in suspension. […] Formed by the TCO-tetrazine click reaction, the fluorescent 18-11-protein conjugates were detected as in-gel fluorescent bands after SDS-PAGE. In the samples taken after incubation with 13, less in-gel fluorescent bands (18-11-protein conjugates) were detected than in the samples taken before incubation with 13, showing that 11-protein conjugates had reacted with 13 to form 13-11-protein conjugates. […]

[1] = Click-and-cleave without proteins/lysate (release of cleaved off photo-reacted reactivity function 15, LC-MS); assay type: physicochemical; settings: for Area/a.u. of LC-MS EIC 249.10 peak at 1.75 min (cleaved off photo-reacted reactivity function 15): starting material bound to CPG-TCO beads 13
Experimental: A solution of 100 μL 2.5 μM 11 (CPT727, Capture Compound bearing tetrazine as sorting function and a chemically cleavable photo-reactivity function) in phosphate buffered saline (PBS) was irradiated with UV light (λmax=310 nm) for 5 min at 4° C. in the caproBox (caprotec bioanalytics, Berlin. Germany) to activate the reactivity function yielding 12 (Scheme 12).
The resulting solution was incubated with 2 mg 13 (CPT601, CCB 4, trans-cyclooctene (TCO) modified controlled pore glass (CPG), CPG-TCO beads) over night at 4° C. to covalently bind compound 12 to 13 by the TCO-tetrazine click reaction yielding 14 (Scheme 12). During this time, 13 was kept in suspension by rotation.
Unbound 12 was removed by separating the supernating solution from 14 after centrifugation in a table top centrifuge and washing the solid 14 by re-suspending in fresh solution and removal of the supernatant after centrifugation (three times with 200 μl SL Buffer (50 mM Tris/HCl, 320 mM beta-mercaptoethanol, 2.5% sodium dodecylsulfate, 0.05% bromophenol blue, 10% glycerol, pH 6.8), three times with 200 μl 50% acetonitrile).
The washed 14 was divided into two aliquots. One aliquot was incubated with 10 mM 2-nitrobenzhydrazide and 10 mM HCl in 10 μl 50% acetonitrile (final concentrations and volume) at room temperature for 1 h while keeping 14 in suspension by rotation yielding the cleaved off photo-reacted reactivity function 15 (Scheme 12). As a control, the second aliquot of 14 was treated the same way side-by-side but without 2-nitrobenzhydrazide and HCl. The solutions supernating (cleaved) 14 were analyzed by LC-MS.
The same procedure was performed side-by-side using 16 (CPT634, Capture Compound bearing tetrazine as sorting function and non-cleavable photo-reactivity function) instead of 11.

[2] = biological target: T2, Ribosomal RNA small subunit methyltransferase G (Escherichia coli, UniProt P0A6U5); experiment: Click-and-cleave with proteins/lysate, nanoLC/MS2 protein quantification of gel slices; assay type: binding, E. coli K-12 strain; settings: Cleavage, compound 2.5 μM, gel slice around 25 kDa
T2 construct: prepared from the DH5a derivative of the E. coli K-12 strain; endogenous in cells; host or cells: E. coli K-12 DH5a lysate
Experimental: (§1) Compound 11 (final concentration 2.5 μM) was incubated for 5 min at 4° C. with a lysate (final total protein concentration 5 mg/ml) prepared from the DH5a derivative of the E. coli K-12 strain in phosphate buffered saline (final volume 100 μl). In a so called competition control (designated “C” as opposed to “A” for CCMS assay without the competitor SAH) carried out side-by-side, S-adenosyl-L-homocysteine (SAH) (final concentration 250 μM) was added to the lysate before compound 11 to compete for the binding of the SAH selectivity function of 11 to SAH binding proteins such as S-adenosyl-L-methionine (SAM) dependent methyltransferases.
(§2) The samples were irradiated with UV light (λmax=310 nm) for 5 min in the caproBox (caprotec bioanalytics, Berlin, Germany) at about 4° C. to activate the reactivity function of 11 and form the covalent cross-link to proteins leading to 11-protein conjugates. Due to the SAH selectivity function in 11. SAH binding proteins will be selectively cross-linked to 11 and this selective crosslink will be diminished or inhibited in the competition control “C”.
(§3) The samples “A” and “C” were incubated with 250 μg 13 (CPT601, CCB 4, trans-cyclooctene (TCO) modified controlled pore glass (CPG). CPG-TCO beads), respectively, over night at 4° C. with rotation to keep the CPG beads (13) in suspension. During this time the 11-protein conjugates covalently bound to 13 by the TCO-tetrazine click reaction to form 13-11-protein conjugates. Selective binding of 11-protein conjugates to 13 was shown by taking 5 μl samples of “A” and “C”, respectively, before and after incubation with 13 and incubating these samples with 18 (final concentration 10 μM, CPT533. Probe 3, TCO-TAMRA) for 15 min at room temperature. Formed by the TCO-tetrazine click reaction, the fluorescent 18-11-protein conjugates were detected as in-gel fluorescent bands after SDS-PAGE. In the samples taken after incubation with 13, less in-gel fluorescent bands (18-11-protein conjugates) were detected than in the samples taken before incubation with 13, showing that 11-protein conjugates had reacted with 13 to form 13-11-protein conjugates.
(§4) The supernating solution was separated from the 13-11-protein conjugates after centrifugation in a table top centrifuge and the CPG beads containing the 13-11-protein conjugates were washed by re-suspending in fresh solution and removal of the supernatant after centrifugation (three times with 200 μl 4×SL Buffer, three times with 200 μl 50% acetonitrile).
(§5) The washed CPG beads containing the 13-11-protein conjugates were divided into two aliquots, respectively, for “A” and “C”. One aliquot was incubated with 10 mM 2-nitrobenzhydrazide and 10 mM HCl in 10 μl 50% acetonitrile (final concentrations and volume) at room temperature for 1 h while keeping the CPG beads containing the 13-11-protein conjugates in suspension by rotation yielding proteins with attached cleaved off photo-reacted reactivity function. As a control, the second aliquot of the CPG beads containing the 13-11-protein conjugates was treated the same way side-by-side but without 2-nitrobenzhydrazide and HCl. The proteins in the solutions supernating (cleaved) the CPG beads were analyzed by SDS-PAGE (4-20% Tris-Glycine gradient gels, 15 well, 1.0 mm; Novex® life Technologes® Ref. EC60255BOX, 25 min run time at 300 V) followed by silver staining (ProteoSilver Silver Stain Kit, Sigma).
(§6) Gel slices were cut out around 25 kDa in each gel lane corresponding to the molecular weight (height) of the specific gel lane marked by the red arrow in FIG. 13. The gel slices were treated with trypsin and the resulting peptides were analyzed by nanoLC/MS^2 (LTQ Orbitrap) followed by automatic software based protein identification and quantification (MaxQuant software package). […]

[3] = biological target: T3, tRNA (cmo5U34)-methyltransferase (Escherichia coli, UniProt P76290); experiment: as above; assay type: binding, E. coli K-12 strain; settings: Cleavage, compound 2.5 μM, gel slice around 25 kDa
T3 construct: prepared from the DH5a derivative of the E. coli K-12 strain; endogenous in cells; host or cells: E. coli K-12 DH5a lysate
Experimental: as §1, §2, §3, §4, §5, §6

[4] = biological target: T4, 5-methylthioadenosine/S-adenosylhomocysteine nucleosidase (Escherichia coli, UniProt P0AF12); experiment: as above; assay type: binding, E. coli K-12 strain; settings: compound 2.5 μM, gel slice around 25 kDa
T4 construct: prepared from the DH5a derivative of the E. coli K-12 strain; endogenous in cells; host or cells: E. coli K-12 DH5a lysate
Experimental: as §1, §2, §3, §4, §5, §6

[5] = biological target: T5, tRNA (guanine-N(7)-)-methyltransferase (Escherichia coli, UniProt P0A8I5); experiment: as above; assay type: binding, E. coli K-12 strain; settings: A (without competitor SAH), Cleavage; compound 2.5 μM, gel slice around 25 kDa
T5 construct: prepared from the DH5a derivative of the E. coli K-12 strain; endogenous in cells; host or cells: E. coli K-12 DH5a lysate
Experimental: as §1, §2, §3, §4, §5, §6

[6] = C (competition control, SAH 250 μM)
[7] = A (without competitor SAH), Cleavage (10 mM 2-nitrobenzhydrazide, 10 mM HCl)
[8] = A (without competitor SAH), no Cleavage
[9] = C (competition control, SAH 250 μM), Cleavage
[10] = C (competition control, SAH 250 μM), no Cleavage

T2 sequence (P0A6U5 whole entry): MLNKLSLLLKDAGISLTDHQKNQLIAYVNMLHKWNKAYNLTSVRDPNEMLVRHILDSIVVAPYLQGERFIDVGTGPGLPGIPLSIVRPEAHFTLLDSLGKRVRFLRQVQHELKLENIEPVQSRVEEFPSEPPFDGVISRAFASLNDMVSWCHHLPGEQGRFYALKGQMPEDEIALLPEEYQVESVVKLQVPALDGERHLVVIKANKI
T4 sequence (P0AF12 whole entry): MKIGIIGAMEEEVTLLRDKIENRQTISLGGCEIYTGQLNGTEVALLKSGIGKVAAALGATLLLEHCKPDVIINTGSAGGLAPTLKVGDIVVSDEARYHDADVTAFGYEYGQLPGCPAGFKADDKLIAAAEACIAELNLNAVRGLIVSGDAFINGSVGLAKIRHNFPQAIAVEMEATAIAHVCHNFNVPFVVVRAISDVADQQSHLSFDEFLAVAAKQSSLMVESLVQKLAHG
T1 sequence (P0AF12 whole entry): as above
T3 sequence (P76290 whole entry): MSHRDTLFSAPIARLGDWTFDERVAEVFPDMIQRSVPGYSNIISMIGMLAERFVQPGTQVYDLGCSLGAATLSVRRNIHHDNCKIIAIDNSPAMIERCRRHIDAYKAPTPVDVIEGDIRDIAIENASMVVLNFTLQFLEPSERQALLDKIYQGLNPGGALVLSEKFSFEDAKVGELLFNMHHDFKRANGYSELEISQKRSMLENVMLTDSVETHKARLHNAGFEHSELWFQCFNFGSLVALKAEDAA
T5 sequence (P0A8I5 whole entry): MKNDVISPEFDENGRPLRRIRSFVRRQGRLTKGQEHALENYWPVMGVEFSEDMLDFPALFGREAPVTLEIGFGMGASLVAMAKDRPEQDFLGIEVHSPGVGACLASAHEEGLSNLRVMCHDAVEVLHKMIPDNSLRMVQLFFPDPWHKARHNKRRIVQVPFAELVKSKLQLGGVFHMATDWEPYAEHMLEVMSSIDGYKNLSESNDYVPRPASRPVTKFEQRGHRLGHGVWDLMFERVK

SMILES	gel band corresponding to a SAH binding protein after SDS-PAGE/silver stain (SAH binding protein)	fold higher intensity of 15 with 2-nitrobenzhydrazide and HCl than without ([1]; 10 mM 2-nitrobenzhydrazide, 10 mM HCl vs 50% acetonitrile only)	Area/a.u. of LC-MS EIC 249.10 peak at 1.75 min (cleaved off photo-reacted reactivity function 15) ([1]; cleavage condition 10 mM 2-nitrobenzhydrazide, 10 mM HCl in 50% acetonitrile) [a.u.]	Area/a.u. of LC-MS EIC 249.10 peak at 1.75 min (cleaved off photo-reacted reactivity function 15) ([1]; cleavage condition 50% acetonitrile) [a.u.]	Normalized protein intensities ([2]; A (without competitor SAH))	Normalized protein intensities [2, 6]	Normalized protein intensities ([3]; A (without competitor SAH))	Normalized protein intensities [3, 6]	Normalized protein intensities [4, 7]	Normalized protein intensities [4, 8]	Normalized protein intensities [4, 9]	Normalized protein intensities [4, 10]	Normalized protein intensities [5]
Cc1nnc(-c2ccc(CN(CC(=O)NCCCCNc3ncnc4c3ncn4C3OC(CSCC[C@H](N)C(=O)O)C(O)C3O)C(=O)CC/C=N/N(C)C(=O)c3ccc(C4(C(F)(F)F)N=N4)cc3)cc2)nn1 (stereo partly drawn) [Compound 11, (2S)-2-amino-4-((3,4-dihydroxy-5-(6-(4-(2-((E)-N-(4-(6-methyl-1,2,4,5-tetrazin-3-yl)benzyl)-4-(2-methyl-2-(4-(3-(trifluoromethyl)-3H-diazirin-3-yl)benzoyl)hydrazono)butanamido)acetamido)butylamino)-9H-purin-9-yl)tetrahydrofuran-2-yl)methylthio)butanoic acid]	present	more than 50 fold	26722302	491625	7.8E+05	3.6E+05	1.6E+06	2.9E+05	9.0E+07	4.0E+06	2.2E+06	1.0E+06	4.0E+05
Cc1nnc(-c2ccc(CN(CC(=O)NCCCCNc3ncnc4c3ncn4C3OC(CSCC[C@H](N)C(=O)O)C(O)C3O)C(=O)c3ccc(C4(C(F)(F)F)N=N4)cc3)cc2)nn1 (some centres unmarked) [Compound 16]	absent	–	–	–	1.5E+05	7.5E+04	–	–	7.2E+06	1.9E+05	7.9E+05	2.6E+05	–
